Counter-ions that a name gives are not always drawn. Like-named read-outs stand apart in the source and are kept apart here.
Key:
[1] = molecular target: T1, Noradrenaline (NA) reuptake (Rattus norvegicus, UniProt Q63380); assay: Noradrenaline (NA) reuptake inhibition in rat brain synaptosomes (hypothalamus, P2 fraction); format: biochemical
T1 construct: synaptosomes are freshly isolated from areas of rat brain; from tissue; host or cells: rat hypothalamus synaptosomes (P2 fraction)
Summary of the method: (§1)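 Freshly isolated rat brain synaptosomes (P2 fraction, Gray–Whittaker method) used for uptake; for NA uptake the particles came from hypothalamus of male rats.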

Serotonin (5HT) reuptake = molecular target: T2, Serotonin (5HT) reuptake (Rattus norvegicus, UniProt P31652); assay: Serotonin (5HT) reuptake inhibition in rat brain synaptosomes (P2 fraction); format: biochemical; details: for inhibition at 10 µM: read-out: Serotonin reuptake, % inhibition [10 μM]
T2 construct: synaptosomes are freshly isolated from areas of rat brain; from tissue; host or cells: rat brain synaptosomes (P2 fraction)
Summary of the method: as §1

human μ-opiate receptor = human μ-opiate receptor (Homo sapiens, UniProt P35372); assay: Affinity for the human μ-opiate receptor ([3H]-naloxone displacement, SPA, CHO-K1 membrane preparation); format: binding; details: for inhibition at 1 µM: read-out: μ-Opioid receptor, % inhibition [1 μM]; for Ki: read-out: μ-Opioid receptor, Ki
[2] = read-out: NA reuptake, % inhibition [10 μM]
[3] = 1 μM test substance, inhibition of specific [3H]-naloxone binding
[4] = [3H]-naloxone, human μ-opiate receptor membranes
[5] = read-out: Na reuptake, % inhibition [10 μM]

T2 sequence (P31652 whole entry): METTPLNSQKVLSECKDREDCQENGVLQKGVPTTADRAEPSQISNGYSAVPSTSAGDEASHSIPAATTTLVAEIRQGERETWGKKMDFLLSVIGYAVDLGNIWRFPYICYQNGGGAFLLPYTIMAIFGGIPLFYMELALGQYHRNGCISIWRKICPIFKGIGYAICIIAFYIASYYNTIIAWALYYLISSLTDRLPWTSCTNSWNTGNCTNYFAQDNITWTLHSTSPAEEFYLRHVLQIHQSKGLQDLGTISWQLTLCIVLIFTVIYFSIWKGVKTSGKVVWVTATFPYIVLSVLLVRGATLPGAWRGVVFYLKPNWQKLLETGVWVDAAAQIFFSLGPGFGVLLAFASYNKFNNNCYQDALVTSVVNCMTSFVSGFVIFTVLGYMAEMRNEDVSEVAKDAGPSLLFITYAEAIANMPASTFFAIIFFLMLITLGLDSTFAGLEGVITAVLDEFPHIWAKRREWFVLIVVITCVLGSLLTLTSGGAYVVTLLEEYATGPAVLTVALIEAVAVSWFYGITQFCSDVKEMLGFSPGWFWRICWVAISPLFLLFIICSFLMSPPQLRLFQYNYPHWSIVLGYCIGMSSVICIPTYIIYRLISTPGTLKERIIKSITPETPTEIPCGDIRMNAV
T1 sequence (Q63380 1-617): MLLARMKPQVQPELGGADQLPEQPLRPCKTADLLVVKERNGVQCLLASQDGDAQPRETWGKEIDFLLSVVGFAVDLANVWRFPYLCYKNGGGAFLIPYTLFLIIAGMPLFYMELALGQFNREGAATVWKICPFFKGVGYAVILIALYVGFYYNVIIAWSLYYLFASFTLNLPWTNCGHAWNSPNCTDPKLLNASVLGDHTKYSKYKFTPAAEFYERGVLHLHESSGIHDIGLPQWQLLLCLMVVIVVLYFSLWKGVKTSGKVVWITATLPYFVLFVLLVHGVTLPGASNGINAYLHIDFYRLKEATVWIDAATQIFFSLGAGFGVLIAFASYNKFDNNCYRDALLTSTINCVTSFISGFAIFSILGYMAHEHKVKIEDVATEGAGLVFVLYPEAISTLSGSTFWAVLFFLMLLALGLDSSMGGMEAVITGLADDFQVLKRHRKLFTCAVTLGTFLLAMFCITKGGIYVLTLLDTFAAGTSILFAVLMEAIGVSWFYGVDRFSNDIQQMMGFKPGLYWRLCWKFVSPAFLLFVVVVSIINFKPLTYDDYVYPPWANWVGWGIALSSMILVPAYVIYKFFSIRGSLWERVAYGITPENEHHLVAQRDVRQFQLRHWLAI
human μ-opiate receptor, sequence (P35372 whole entry): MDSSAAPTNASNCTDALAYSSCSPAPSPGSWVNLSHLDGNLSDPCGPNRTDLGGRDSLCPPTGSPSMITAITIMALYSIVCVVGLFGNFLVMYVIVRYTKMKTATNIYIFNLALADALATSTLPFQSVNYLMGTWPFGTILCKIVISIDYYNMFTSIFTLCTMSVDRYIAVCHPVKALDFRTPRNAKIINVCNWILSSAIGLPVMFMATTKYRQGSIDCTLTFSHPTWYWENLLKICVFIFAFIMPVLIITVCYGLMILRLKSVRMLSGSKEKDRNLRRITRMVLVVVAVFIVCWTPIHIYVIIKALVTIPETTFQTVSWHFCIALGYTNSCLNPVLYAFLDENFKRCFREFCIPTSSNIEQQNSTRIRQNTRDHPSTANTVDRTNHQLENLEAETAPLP

CN(C)C(c1cccs1)C1CCC(CN)CC1 (centres unmarked) [compound 42, [(4-aminomethyl-cyclohexyl)-thiophen-2-yl-methyl]-dimethylamine]
inhibition at 10 µM [1, 2]: 83%
inhibition at 10 µM (Serotonin (5HT) reuptake): 86%
inhibition at 1 µM (human μ-opiate receptor; [3]): 80%
Ki (human μ-opiate receptor; [4]): 240 nM

CN(C)C(c1ccccc1)C1CCC(NCCc2ccccc2)CC1 (centres unmarked) [compound 84, 4-((dimethylamino)(phenyl)methyl)-N-phenethylcyclohexanamine hydrochloride]
inhibition at 10 µM [1, 2]: 93%
inhibition at 10 µM (Serotonin (5HT) reuptake): 76%
inhibition at 1 µM (human μ-opiate receptor; [3]): 95%
Ki (human μ-opiate receptor): 12 nM

CN(C)C(c1cccs1)C1CCC(N)CC1 (centres unmarked) [compound 25, 4-(dimethylamino-thiophen-2-yl-methyl)-cyclohexylamine]
inhibition at 10 µM [1, 2]: 84%
inhibition at 10 µM (Serotonin (5HT) reuptake): 71%
inhibition at 1 µM (human μ-opiate receptor; [3]): 74%
Ki (human μ-opiate receptor; [4]): 260 nM

CCOC(=O)C=C1CCC(C(c2cccc(F)c2)N(C)C)CC1 (centres unmarked) [compound 129, {4-[dimethylamino-(3-fluorophenyl)-methyl]-cyclohexylidene}-acetic acid ethyl ester]
inhibition at 10 µM [1, 2]: 81%
Ki (Serotonin (5HT) reuptake): 86 nM
inhibition at 10 µM (Serotonin (5HT) reuptake): 91%
inhibition at 1 µM (human μ-opiate receptor; [3]): 47%
Ki (human μ-opiate receptor): 540 nM

COc1ccc(NC2CCC(C(c3ccccc3)N(C)C)CC2)cc1 (centres unmarked) [compound 89, N-(4-((dimethylamino)(phenyl)methyl)cyclohexyl)-4-methoxybenzenamine hydrochloride]
inhibition at 10 µM [1, 2]: 85%
inhibition at 10 µM (Serotonin (5HT) reuptake): 73%
inhibition at 1 µM (human μ-opiate receptor; [3]): 95%
Ki (human μ-opiate receptor): 59 nM

CN(C)C(c1ccccc1)C1CCC(CN)CC1 (centres unmarked) [compound 30, [(4-aminomethyl-cyclohexyl)-phenyl-methyl]-dimethylamine]
inhibition at 10 µM [1, 2]: 89%
inhibition at 10 µM (Serotonin (5HT) reuptake): 89%
inhibition at 1 µM (human μ-opiate receptor; [3]): 94%
Ki (human μ-opiate receptor): 210 nM

CN(C)C(c1ccccc1)C1CCC(NS(=O)(=O)c2ccc(C(C)(C)C)cc2)CC1 (centres unmarked) [compound 108, 4-tert-butyl-N-(4-((dimethylamino)(phenyl)methyl)cyclohexyl)benzene-sulfonamide hydrochloride]
inhibition at 10 µM [1, 2]: 75%
inhibition at 10 µM (Serotonin (5HT) reuptake): 75%
inhibition at 1 µM (human μ-opiate receptor; 1 μM, sulfonamides (Table 17)): 92%
Ki (human μ-opiate receptor; sulfonamides (Table 17)): 22 nM

COc1ccc(CNC2CCC(C(c3ccccc3)N(C)C)CC2)cc1 (centres unmarked) [compound 90, 4-((dimethylamino)(phenyl)methyl)-N-(4-methoxybenzyl)cyclohexanamine dihydrochloride]
inhibition at 10 µM [1, 2]: 98%
inhibition at 10 µM (Serotonin (5HT) reuptake): 87%
inhibition at 1 µM (human μ-opiate receptor; [3]): 94%
Ki (human μ-opiate receptor): 45 nM

CN(C)C(c1cccc(F)c1)C1CCC(C=O)CC1 (centres unmarked) [compound 34, 4-[Dimethylamino-(3-fluorophenyl)-methyl]-cyclohexane-carbaldehyde]
inhibition at 10 µM [1, 2]: 87%
inhibition at 10 µM (Serotonin (5HT) reuptake): 87%
inhibition at 1 µM (human μ-opiate receptor; [3]): 34%

CN(C)C(c1cccc(F)c1)C1CCC(CCCO)CC1 (centres unmarked) [compound 140, 3-{4-[dimethylamino-(3-fluorophenyl)-methyl]-cyclohexyl}-propan-1-ol]
inhibition at 10 µM [1, 2]: 94%
inhibition at 10 µM (Serotonin (5HT) reuptake): 85%
inhibition at 1 µM (human μ-opiate receptor; [3]): 31%

CN(C)C(c1cccs1)C1CCC(CC=O)CC1 (centres unmarked) [compound 67, {4-[Dimethylamino-thiophen-2-yl-methyl]-cyclohexyl}-acetaldehyde]
inhibition at 10 µM [1, 2]: 86%
inhibition at 10 µM (Serotonin (5HT) reuptake): 95%
Ki (human μ-opiate receptor): 200 nM

CCC(=O)N(CCCCc1ccccc1)C1CCC(C(c2ccccc2)N(C)C)CC1 (centres unmarked) [compound 97, N-(4-((dimethylamino)(phenyl)methyl)cyclohexyl)-N-(4-phenylbutyl)propionamide hydrochloride]
Ki [1]: 700 nM
inhibition at 10 µM [1, 5]: 94%
Ki (Serotonin (5HT) reuptake): 990 nM
inhibition at 10 µM (Serotonin (5HT) reuptake): 76%
inhibition at 1 µM (human μ-opiate receptor): 97%
Ki (human μ-opiate receptor): 3.7 nM

CN(C)C(c1ccccc1)C1CCC(C=O)CC1 (centres unmarked) [compound 28, 4-(Dimethylamino-phenyl-methyl)-cyclohexane-carbaldehyde]
inhibition at 10 µM [1, 2]: 84%
inhibition at 10 µM (Serotonin (5HT) reuptake): 85%
inhibition at 1 µM (human μ-opiate receptor; [3]): 69%

CN(C)C(c1ccccc1)C1CCC(CO)CC1 (centres unmarked) [compound 117, [4-(dimethylamino-phenyl-methyl)-cyclohexyl]-methanol]
inhibition at 10 µM [1, 2]: 82%
inhibition at 10 µM (Serotonin (5HT) reuptake): 85%
inhibition at 1 µM (human μ-opiate receptor; [3]): 57%

CN(C)C(c1ccccc1)C1CCC(CCO)CC1 (centres unmarked) [compound 125, 2-[4-(dimethylamino-phenyl-methyl)-cyclohexyl]-ethanol]
inhibition at 10 µM [1, 2]: 86%
inhibition at 10 µM (Serotonin (5HT) reuptake): 82%
inhibition at 1 µM (human μ-opiate receptor; [3]): 62%

CN(C)C(c1cccc(F)c1)C1CCC(CO)CC1 (centres unmarked) [compound 119, {4-[dimethylamino-(3-fluorophenyl)-methyl]-cyclohexyl}-methanol]
inhibition at 10 µM [1, 2]: 91%
inhibition at 10 µM (Serotonin (5HT) reuptake): 88%
inhibition at 1 µM (human μ-opiate receptor; [3]): 43%

CN(C)C(c1cccc(F)c1)C1CCC(O)CC1 (centres unmarked) [compound 113, 4-[dimethylamino-(3-fluorophenyl)-methyl]-cyclohexanol]
inhibition at 10 µM [1, 2]: 82%
inhibition at 10 µM (Serotonin (5HT) reuptake): 83%
inhibition at 1 µM (human μ-opiate receptor; [3]): 46%

CN(C)C(CCc1ccccc1)C1CCC(CO)CC1 (centres unmarked) [compound 122, [4-(1-dimethylamino-3-phenyl-propyl)-cyclohexyl]-methanol]
inhibition at 10 µM [1, 2]: 97%
inhibition at 10 µM (Serotonin (5HT) reuptake): 77%
inhibition at 1 µM (human μ-opiate receptor; [3]): 32%

CN(C)C(c1ccccc1)C1CCC(CCCO)CC1 (centres unmarked) [compound 134, 3-[4-(dimethylamino-phenyl-methyl)-cyclohexyl]-propan-1-ol]
inhibition at 10 µM [1, 2]: 90%
inhibition at 10 µM (Serotonin (5HT) reuptake): 86%
inhibition at 1 µM (human μ-opiate receptor; [3]): 45%

CN(C)C(c1ccccc1)C1CCC(N)CC1 (centres unmarked) [compound 17, 4-(dimethylamino-phenyl-methyl)-cyclohexylamine]
Ki ([1]; rat brain synaptosomes (hypothalamus), read-out: NA reuptake, Ki): 870 nM
inhibition at 10 µM [1, 2]: 92%
Ki (Serotonin (5HT) reuptake; rat brain synaptosomes, read-out: Serotonin reuptake, Ki): 860 nM
inhibition at 10 µM (Serotonin (5HT) reuptake): 86%
inhibition at 1 µM (human μ-opiate receptor; [3]): 83%
Ki (human μ-opiate receptor; [4]): 440 nM

CN(C)C(c1ccc(Cl)cc1)C1CCC(O)CC1 (centres unmarked) [compound 114, 4-[(4-chlorophenyl)-dimethylamino-methyl]-cyclohexanol]
inhibition at 10 µM [1, 2]: 93%
inhibition at 10 µM (Serotonin (5HT) reuptake): 64%
inhibition at 1 µM (human μ-opiate receptor; [3]): 43%

CC(=O)N(c1ccccc1)C1CCC(C(c2ccccc2)N(C)C)CC1 (centres unmarked) [compound 96, N-(4-((dimethylamino)(phenyl)methyl)cyclohexyl)-N-phenylacetamide hydrochloride]
Ki [1]: 800 nM
inhibition at 10 µM [1, 5]: 88%
Ki (Serotonin (5HT) reuptake): 660 nM
inhibition at 10 µM (Serotonin (5HT) reuptake): 83%
inhibition at 1 µM (human μ-opiate receptor): 99%
Ki (human μ-opiate receptor): 86 nM

COc1ccc(OC)c(C2(O)CCC(C(c3ccccc3)N(C)C)CC2)c1 (centres unmarked) [compound 149, 1-(2,5-Dimethoxyphenyl)-4-((dimethylamino)(phenyl)methyl)cyclohexanol hydrochloride]
inhibition at 10 µM [1, 2]: 75%
inhibition at 10 µM (Serotonin (5HT) reuptake): 85%
inhibition at 1 µM (human μ-opiate receptor; [3]): 82%

CN(C)C(c1ccccc1)C1CCC(OCc2ccccc2)CC1 (centres unmarked) [compound 144, 4-(benzyloxy)cyclohexyl)-N,N-dimethyl(phenyl)methanamine hydrochloride]
inhibition at 10 µM [1, 2]: 75%
inhibition at 10 µM (Serotonin (5HT) reuptake): 80%
inhibition at 1 µM (human μ-opiate receptor; [3]): 81%
Ki (human μ-opiate receptor): 120 nM

CN(C)C(c1cccs1)C1CCC(CCN)CC1 (centres unmarked) [compound 69, 2-[4-(dimethylamino-thiophen-2-yl-methyl)-cyclohexyl]-ethylamine]
inhibition at 10 µM [1, 2]: 98%
inhibition at 10 µM (Serotonin (5HT) reuptake): 83%
inhibition at 1 µM (human μ-opiate receptor; [3]): 61%

CN(C)C(c1ccccc1)C1CCC(NS(=O)(=O)c2ccc(Cl)cc2)CC1 (centres unmarked) [compound 106, 4-chloro-N-(4-((dimethylamino)(phenyl)methyl)cyclohexyl)benzene-sulfonamide hydrochloride]
inhibition at 10 µM [1, 2]: 68%
inhibition at 10 µM (Serotonin (5HT) reuptake): 83%
inhibition at 1 µM (human μ-opiate receptor; 1 μM, sulfonamides (Table 17)): 96%
Ki (human μ-opiate receptor; sulfonamides (Table 17)): 3.7 nM

CN(C)C(c1cccs1)C1CCC(CO)CC1 (centres unmarked) [compound 121, [4-(dimethylamino-thiophen-2-yl-methyl)-cyclohexyl]-methanol]
inhibition at 10 µM [1, 2]: 66%
inhibition at 10 µM (Serotonin (5HT) reuptake): 74%
inhibition at 1 µM (human μ-opiate receptor; [3]): 61%

CN(C)C(CCc1ccccc1)C1CCC(O)CC1 (centres unmarked) [compound 116, 4-(1-dimethylamino-3-phenyl-propyl)-cyclohexanol]
inhibition at 10 µM [1, 2]: 95%
inhibition at 10 µM (Serotonin (5HT) reuptake): 74%
inhibition at 1 µM (human μ-opiate receptor; [3]): 37%

CCOC(=O)CC1CCC(C(c2ccccc2)N(C)C)CC1 (centres unmarked) [compound 124, [4-(dimethylamino-phenyl-methyl)-cyclohexyl]-acetic acid ethyl ester]
inhibition at 10 µM [1, 2]: 76%
Ki (Serotonin (5HT) reuptake): 97 nM
inhibition at 10 µM (Serotonin (5HT) reuptake): 85%
inhibition at 1 µM (human μ-opiate receptor; [3]): 79%
Ki (human μ-opiate receptor): 79 nM

CN(C)C(c1ccc(Cl)cc1)C1CCC(CCN)CC1 (centres unmarked) [compound 66, 2-{4-[dimethylamino-(4-chlorophenyl)-methyl]-cyclohexyl}-ethylamine]
inhibition at 10 µM [1, 2]: 96%
inhibition at 10 µM (Serotonin (5HT) reuptake): 96%
inhibition at 1 µM (human μ-opiate receptor; [3]): 62%

CN(C)C(c1cccs1)C1CCC(O)CC1 (centres unmarked) [compound 115, 4-(dimethylamino-thiophen-2-yl-methyl)-cyclohexanol]
inhibition at 10 µM [1, 2]: 47%
inhibition at 10 µM (Serotonin (5HT) reuptake): 63%
inhibition at 1 µM (human μ-opiate receptor; [3]): 61%

COc1ccc(S(=O)(=O)NC2CCC(C(c3ccccc3)N(C)C)CC2)cc1 (centres unmarked) [compound 107, N-(4-((dimethylamino)(phenyl)methyl)cyclohexyl)-4-methoxybenzene-sulfonamide hydrochloride]
inhibition at 10 µM [1, 2]: 78%
inhibition at 10 µM (Serotonin (5HT) reuptake): 90%
inhibition at 1 µM (human μ-opiate receptor; 1 μM, sulfonamides (Table 17)): 99%
Ki (human μ-opiate receptor; sulfonamides (Table 17)): 15 nM
